This is an account of results in ChEMBL document CHEMBL1142021, “Aglycon specificity profiling of alpha-glucosidases using synthetic probes” (Bioorg Med Chem Lett, 2005).

Assay [1] deals with T1, Alpha-glucosidase (Apis mellifera) (UniProt Q17058).
T1 sequence (whole entry): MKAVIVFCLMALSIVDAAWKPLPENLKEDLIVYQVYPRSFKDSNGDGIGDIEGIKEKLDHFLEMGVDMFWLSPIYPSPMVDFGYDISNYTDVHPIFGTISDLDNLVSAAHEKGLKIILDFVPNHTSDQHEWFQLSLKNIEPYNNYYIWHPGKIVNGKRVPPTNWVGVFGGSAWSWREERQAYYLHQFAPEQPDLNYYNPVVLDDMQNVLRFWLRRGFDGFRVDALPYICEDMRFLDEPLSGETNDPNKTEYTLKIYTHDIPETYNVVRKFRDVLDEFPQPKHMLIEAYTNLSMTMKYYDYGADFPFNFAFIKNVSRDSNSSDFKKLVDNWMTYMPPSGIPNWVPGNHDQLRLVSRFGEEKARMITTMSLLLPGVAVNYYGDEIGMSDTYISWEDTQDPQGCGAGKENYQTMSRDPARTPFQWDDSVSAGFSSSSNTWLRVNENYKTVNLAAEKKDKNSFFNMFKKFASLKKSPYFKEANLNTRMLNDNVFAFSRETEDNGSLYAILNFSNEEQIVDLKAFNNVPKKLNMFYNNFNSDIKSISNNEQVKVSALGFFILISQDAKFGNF
Description: Inhibition of family 13 alpha-glucosidase isoform I from honey bee at 1 umol/mL.

Assay [2] concerns the target T1, Alpha-glucosidase (Apis mellifera). The experiment in a line: Inhibition of family 13 alpha-glucosidase isoform II from honey bee at 1 umol/mL.
The target is the same in assay [3]. The experiment in a line: Inhibition of family 13 alpha-glucosidase isoform III from honey bee at 1 umol/mL.
Assay [4] in a line: Inhibition of Flint corn glucosidase (of family 31 alpha-glucosidase) by compound with concentration 1 umol/mI.
Assay [5] concerns the target Alpha-glucosidase (Beta vulgaris) (UniProt O04931). Description: Inhibition of Sugar beet glucosidase (of family 31 alpha-glucosidase) at 1 umol/mL.
In assay [6] the target is T2, Beta-mannosidase (Homo sapiens) (UniProt O00462).
T2 sequence (whole entry): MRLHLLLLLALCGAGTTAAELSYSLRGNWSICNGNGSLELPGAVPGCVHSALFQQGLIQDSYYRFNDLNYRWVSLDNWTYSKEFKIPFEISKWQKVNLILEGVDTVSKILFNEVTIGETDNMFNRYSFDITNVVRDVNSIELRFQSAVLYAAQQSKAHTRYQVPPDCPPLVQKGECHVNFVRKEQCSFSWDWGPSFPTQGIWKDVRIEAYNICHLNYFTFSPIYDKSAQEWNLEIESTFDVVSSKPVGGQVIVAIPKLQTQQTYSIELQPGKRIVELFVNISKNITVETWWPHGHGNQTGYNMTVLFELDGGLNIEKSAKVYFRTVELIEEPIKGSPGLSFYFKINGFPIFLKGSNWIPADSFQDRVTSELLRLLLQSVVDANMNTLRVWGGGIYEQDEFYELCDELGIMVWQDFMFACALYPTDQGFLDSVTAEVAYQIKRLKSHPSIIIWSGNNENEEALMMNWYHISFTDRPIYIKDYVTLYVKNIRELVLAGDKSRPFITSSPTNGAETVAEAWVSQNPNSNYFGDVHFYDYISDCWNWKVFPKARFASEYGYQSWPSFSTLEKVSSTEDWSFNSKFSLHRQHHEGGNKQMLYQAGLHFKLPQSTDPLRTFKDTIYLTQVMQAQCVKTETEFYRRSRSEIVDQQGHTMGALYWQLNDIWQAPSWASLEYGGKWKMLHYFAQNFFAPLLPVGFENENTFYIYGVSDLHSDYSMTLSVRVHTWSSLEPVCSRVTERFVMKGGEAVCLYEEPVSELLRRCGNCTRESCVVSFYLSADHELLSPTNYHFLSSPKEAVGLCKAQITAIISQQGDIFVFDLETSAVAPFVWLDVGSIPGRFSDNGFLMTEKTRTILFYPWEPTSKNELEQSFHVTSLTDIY
The experiment in a line: Inhibition of beta-Mannosidase at 5 umol/mL.

Another assay is filed under the species Homo sapiens. The experiment in a line: Inhibition of alpha-Galactosidase at 5 umol/mL.
The target of assay [7] is T3, Alpha-glucosidase (Geobacillus stearothermophilus) (UniProt P94451).
T3 sequence (whole entry): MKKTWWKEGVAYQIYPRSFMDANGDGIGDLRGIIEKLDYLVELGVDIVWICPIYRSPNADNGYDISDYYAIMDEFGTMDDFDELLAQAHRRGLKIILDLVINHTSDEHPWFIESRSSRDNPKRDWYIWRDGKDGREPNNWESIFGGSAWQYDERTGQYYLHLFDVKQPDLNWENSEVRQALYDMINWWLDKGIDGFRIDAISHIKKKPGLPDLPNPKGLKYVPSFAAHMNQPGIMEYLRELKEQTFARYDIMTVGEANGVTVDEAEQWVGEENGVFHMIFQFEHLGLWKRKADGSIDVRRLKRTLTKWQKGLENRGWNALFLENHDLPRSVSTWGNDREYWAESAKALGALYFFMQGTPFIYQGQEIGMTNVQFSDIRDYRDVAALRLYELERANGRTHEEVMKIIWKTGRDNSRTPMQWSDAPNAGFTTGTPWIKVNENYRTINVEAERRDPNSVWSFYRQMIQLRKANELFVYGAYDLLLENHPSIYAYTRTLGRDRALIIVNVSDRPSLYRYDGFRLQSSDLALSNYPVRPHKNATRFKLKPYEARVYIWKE
Description: Inhibition of Bacillus stearothermophilus glucosidase (of family 13 alpha-glucosidase) at 1 umol/mL.

The target of assay [8] is T4, Cytosolic beta-glucosidase (Homo sapiens) (UniProt Q9H227).
T4 sequence (whole entry): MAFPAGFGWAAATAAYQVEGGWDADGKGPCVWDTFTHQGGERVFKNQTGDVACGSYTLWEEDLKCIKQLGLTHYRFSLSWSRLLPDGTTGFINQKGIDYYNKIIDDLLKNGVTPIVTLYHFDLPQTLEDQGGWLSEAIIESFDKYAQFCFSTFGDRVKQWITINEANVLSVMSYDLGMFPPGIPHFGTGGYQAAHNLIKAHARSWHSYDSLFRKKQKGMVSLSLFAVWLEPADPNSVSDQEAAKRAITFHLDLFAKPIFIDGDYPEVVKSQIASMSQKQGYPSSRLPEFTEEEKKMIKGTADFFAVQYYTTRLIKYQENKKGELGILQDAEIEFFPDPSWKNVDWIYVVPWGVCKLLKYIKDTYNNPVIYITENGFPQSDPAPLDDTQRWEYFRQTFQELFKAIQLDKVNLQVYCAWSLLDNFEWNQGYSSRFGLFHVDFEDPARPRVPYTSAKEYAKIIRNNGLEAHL
The experiment in a line: Inhibition of beta-Glucosidase at 2 umol/mL.

Structures are written as SMILES. A value given as a limit tells only on which side of the number the result lay.

Sequence of Alpha-glucosidase (Beta vulgaris) (O04931 whole entry): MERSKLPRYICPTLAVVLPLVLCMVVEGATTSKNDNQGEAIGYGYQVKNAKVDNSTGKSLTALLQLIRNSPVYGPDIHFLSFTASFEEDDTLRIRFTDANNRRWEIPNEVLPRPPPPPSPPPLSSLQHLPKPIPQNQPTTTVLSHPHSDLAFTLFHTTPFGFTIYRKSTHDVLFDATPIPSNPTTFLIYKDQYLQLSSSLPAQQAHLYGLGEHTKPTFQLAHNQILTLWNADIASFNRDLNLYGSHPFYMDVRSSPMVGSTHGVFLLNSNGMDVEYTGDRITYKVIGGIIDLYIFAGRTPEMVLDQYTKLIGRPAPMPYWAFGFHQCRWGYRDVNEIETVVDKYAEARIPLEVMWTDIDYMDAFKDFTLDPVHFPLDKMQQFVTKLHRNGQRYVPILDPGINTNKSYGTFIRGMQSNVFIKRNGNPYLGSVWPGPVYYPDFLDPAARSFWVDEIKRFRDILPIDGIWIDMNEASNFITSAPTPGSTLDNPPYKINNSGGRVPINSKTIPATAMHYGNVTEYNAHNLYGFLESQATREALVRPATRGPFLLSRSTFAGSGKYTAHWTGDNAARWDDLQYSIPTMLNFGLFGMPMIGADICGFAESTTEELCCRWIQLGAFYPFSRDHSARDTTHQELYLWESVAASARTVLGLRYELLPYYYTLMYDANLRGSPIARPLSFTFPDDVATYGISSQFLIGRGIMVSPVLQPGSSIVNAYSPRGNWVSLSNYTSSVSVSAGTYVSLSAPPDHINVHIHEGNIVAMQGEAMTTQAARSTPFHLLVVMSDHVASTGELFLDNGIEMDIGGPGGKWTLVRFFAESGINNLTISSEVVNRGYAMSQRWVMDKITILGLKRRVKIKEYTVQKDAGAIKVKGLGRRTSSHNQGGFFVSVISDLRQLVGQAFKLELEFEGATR

The inhibition is the relative decrease from the control value, in per cent. A lower inhibition goes with a weak effect. Regarding `CC(=O)NCC1OC(CO)C(O)C(O)C1O` (stereo not drawn), the inhibition in [1] is 10.4%; in [2], less than 1%; in assay [3], less than 1%; in assay [4], 31%; in assay [5] (Beta vulgaris subsp. vulgaris), 8.8%; in assay [6], less than 1%. For the same molecule, the inhibition (in the assay listed under Homo sapiens; in assay [7]; in assay [8]) was less than 1% in each case.
On to `CC(C)(C)C(=O)NCC1OC(CO)C(O)C(O)C1O` (stereo not drawn), for which the inhibition in assay [1] is less than 1%; in assay [2], less than 1%; in assay [3], less than 1%; in [4], 5.6%; in [5] (Beta vulgaris subsp. vulgaris), 3.2%; in assay [6], less than 1%. Moreover, the inhibition (in the assay filed under Homo sapiens; in assay [7]; in assay [8]) was less than 1% in each case.
On to `O=C(NCC1OC(CO)C(O)C(O)C1O)c1ccccc1` (stereo not drawn), for which the inhibition in [1] is 4.6%; in assay [3], less than 1%; in [4] it was 49.2%; in [5], 9.8%; in the assay filed under Homo sapiens it was less than 1%; in assay [7], less than 1%.
As for `O=C(CCCO)NCC1OC(CO)C(O)C(O)C1O` (stereo not drawn), the inhibition in assay [2] was 3.6%; in [3], less than 1%; in assay [4] it was 18.5%; in assay [5] (Beta vulgaris subsp. vulgaris), 3.6%; in assay [6] it was less than 1%; in the assay filed under Homo sapiens, less than 1%. Further, the inhibition in [7] and in [8] was less than 1% each time.
With `O=C(CCCCO)NCC1OC(CO)C(O)C(O)C1O` (stereo not drawn), the inhibition in assay [1] was 37.5%; in assay [2], 21.4%; in [3], less than 1%; in [4] it was 37%; in assay [5] (Beta vulgaris subsp. vulgaris) it was 3.1%; in [6], less than 1%. In addition, the inhibition in the assay filed under Homo sapiens is less than 1%; in assay [7] it was 100%; in assay [8], less than 1%.
Take `O=C(CCO)NCC1OC(CO)C(O)C(O)C1O` (stereo not drawn): the inhibition in assay [1] is less than 1%; in assay [2], 2.7%; in [3], 3.2%; in assay [4], 14.1%; in assay [5] (Beta vulgaris subsp. vulgaris), 1.7%; in [6], less than 1%. The inhibition (in the assay listed under Homo sapiens; in [7]; in [8]) was less than 1% each time.
Consider `O=C(CCCCCO)NCC1OC(CO)C(O)C(O)C1O` (stereo not drawn), for which the inhibition in [1] was less than 1%; in assay [2] it was 4.4%; in assay [3], less than 1%; in [4] it was 44.6%; in [5] (Beta vulgaris subsp. vulgaris) it was 11.9%; in assay [6], less than 1%. Further, the inhibition (in the assay listed under Homo sapiens; in assay [7]; in assay [8]) was less than 1% in each case.
On to `O=C(CO)NCC1OC(CO)C(O)C(O)C1O` (stereo not drawn), for which the inhibition in assay [1] is less than 52.3%; in assay [2], 4.4%; in assay [3], less than 1%; in assay [4] it was 29.1%; in [5] (Beta vulgaris subsp. vulgaris), 6.9%; in [6] it was less than 1%. The inhibition (in the assay filed under Homo sapiens; in [7]; in assay [8]) was less than 1% throughout.
